Results as given in PubChem BioAssay AID1963974 (Molecular Pharmacology Branch, DTP, NCI, 2024).

System: 648629-189-R-J1-PDC spheroids with HUVEC/MSC, viability
Test: Anticancer human tumor 648629-189-R-J1-PDC patient-derived bladder carcinoma cell line growth inhibition [PI3K]
Settings: for IC50: curve of first compound; for viability, T/C: stronger effect = lower value
Outline: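 Three cell types, namely tumor cells, endothelial cells and mesenchymal stem cells, formed each spheroid. Combinations with four PI3K inhibitors were screened at clinically achievable concentrations decreasing by half-log, and spheroid viability was recorded.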

[1] = second compound 0.00316 µM, first compound 0.0316 µM
[2] = second compound 0.00316 µM, first compound 0.1 µM
[3] = second compound 0.00316 µM, first compound 0.316 µM
[4] = second compound 0.00316 µM, first compound 1 µM
[5] = second compound 0.00316 µM, first compound 3.16 µM
[6] = second compound 0.00316 µM, first compound 10 µM
[7] = second compound 0.01 µM, first compound 0.0316 µM
[8] = second compound 0.01 µM, first compound 0.1 µM
[9] = second compound 0.01 µM, first compound 0.316 µM
[10] = second compound 0.01 µM, first compound 1 µM
[11] = second compound 0.01 µM, first compound 3.16 µM
[12] = second compound 0.01 µM, first compound 10 µM
[13] = second compound 0.0316 µM, first compound 0.0316 µM
[14] = second compound 0.0316 µM, first compound 0.1 µM
[15] = second compound 0.0316 µM, first compound 0.316 µM
[16] = second compound 0.0316 µM, first compound 1 µM
[17] = second compound 0.0316 µM, first compound 3.16 µM
[18] = second compound 0.0316 µM, first compound 10 µM
[19] = second compound 0.1 µM, first compound 0.0316 µM
[20] = second compound 0.1 µM, first compound 0.1 µM
[21] = second compound 0.1 µM, first compound 0.316 µM
[22] = second compound 0.1 µM, first compound 1 µM
[23] = second compound 0.1 µM, first compound 3.16 µM
[24] = second compound 0.1 µM, first compound 10 µM
[25] = second compound 0.316 µM, first compound 0.0316 µM
[26] = second compound 0.316 µM, first compound 0.1 µM
[27] = second compound 0.316 µM, first compound 0.316 µM
[28] = second compound 0.316 µM, first compound 1 µM
[29] = second compound 0.316 µM, first compound 3.16 µM
[30] = second compound 0.316 µM, first compound 10 µM
[31] = second compound 1 µM, first compound 0.0316 µM
[32] = second compound 1 µM, first compound 0.1 µM
[33] = second compound 1 µM, first compound 0.316 µM
[34] = second compound 1 µM, first compound 1 µM
[35] = second compound 1 µM, first compound 3.16 µM
[36] = second compound 1 µM, first compound 10 µM
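Note: spheroids exposed to agents for seven days before reading.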
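Throughout, for viability, T/C: percent of vehicle control luminescence where 100% = DMSO treated spheroids.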

With `C[C@@H](NC(=O)c1ncnc(N)c1Cl)c1ncc(C(=O)Nc2cc(C(F)(F)F)c(Cl)cn2)s1` + COc1c(OCCCN2CCOCC2)ccc2c3n(c(=NC(=O)c4cnc(N)nc4)nc12)CCN3 the IC50 (second compound 0.00316 µM) was greater than 10000 nM, the IC50 (second compound 0.01 µM) was greater than 10000 nM and the IC50 (second compound 0.0316 µM) was greater than 10000 nM. For the same molecule, the IC50 (second compound 0.1 µM) was greater than 10000 nM, the IC50 (second compound 0.316 µM) was less than 31.6 nM and the IC50 (second compound 1 µM) was less than 31.6 nM. For the same molecule, the viability, T/C [1] was 105%, the viability, T/C [2] was 106% and the viability, T/C [3] was 103%. For the same molecule, the viability, T/C [4] was 107%, the viability, T/C [5] was 112% and the viability, T/C [6] was 116%. For the same molecule, the viability, T/C [7] was 99.9%, the viability, T/C [8] was 111% and the viability, T/C [9] was 90.4%. The viability, T/C [10] was 101%, the viability, T/C [11] was 128% and the viability, T/C [12] was 113%. It also gave a viability, T/C [13] of 95.8%, a viability, T/C [14] of 93.8% and a viability, T/C [15] of 109%. For the same molecule, the viability, T/C [16] was 94.9%, the viability, T/C [17] was 104% and the viability, T/C [18] was 90%. For the same molecule, the viability, T/C [19] was 66.6%, the viability, T/C [20] was 70.3% and the viability, T/C [21] was 60.8%. It also gave a viability, T/C [22] of 65.2%, a viability, T/C [23] of 67.3% and a viability, T/C [24] of 68.9%. The viability, T/C [25] was 23.6%, the viability, T/C [26] was 21.7% and the viability, T/C [27] was 19.4%. For the same molecule, the viability, T/C [28] was 27.9%, the viability, T/C [29] was 26.4% and the viability, T/C [30] was 25.8%. The viability, T/C [31] was 4.31%, the viability, T/C [32] was 4.06% and the viability, T/C [33] was 3.53%. It also gave a viability, T/C [34] of 4.37%, a viability, T/C [35] of 4.83% and a viability, T/C [36] of 6.55%.

Work on `Cn1ncc(Cl)c1-c1cc(C(=O)NC(CN)Cc2cccc(F)c2)sc1Cl` (stereo unspecified) + COc1c(OCCCN2CCOCC2)ccc2c3n(c(=NC(=O)c4cnc(N)nc4)nc12)CCN3 yielded an IC50 (second compound 0.00316 µM) of 620 nM, an IC50 (second compound 0.01 µM) of 639 nM and an IC50 (second compound 0.0316 µM) of 419 nM. The IC50 (second compound 0.1 µM) was 110 nM, the IC50 (second compound 0.316 µM) was less than 31.6 nM and the IC50 (second compound 1 µM) was less than 31.6 nM. It also gave a viability, T/C [1] of 110%, a viability, T/C [2] of 102% and a viability, T/C [3] of 59.3%. The viability, T/C [4] was 40.3%, the viability, T/C [5] was 23.1% and the viability, T/C [6] was 7.29%. The viability, T/C [7] was 97.9%, the viability, T/C [8] was 84% and the viability, T/C [9] was 70.5%. The viability, T/C [10] was 35.2%, the viability, T/C [11] was 22.1% and the viability, T/C [12] was 6.56%. It also gave a viability, T/C [13] of 84.6%, a viability, T/C [14] of 78.2% and a viability, T/C [15] of 53.5%. It also gave a viability, T/C [16] of 32.2%, a viability, T/C [17] of 16.9% and a viability, T/C [18] of 4.04%. For the same molecule, the viability, T/C [19] was 67.5%, the viability, T/C [20] was 52.1% and the viability, T/C [21] was 34%. The viability, T/C [22] was 21.8%, the viability, T/C [23] was 10.3% and the viability, T/C [24] was 3.19%. The viability, T/C [25] was 21.9%, the viability, T/C [26] was 16.6% and the viability, T/C [27] was 11.8%. The viability, T/C [28] was 7.56%, the viability, T/C [29] was 4.03% and the viability, T/C [30] was 1.46%. The viability, T/C [31] was 4.06%, the viability, T/C [32] was 2.7% and the viability, T/C [33] was 2.87%. The viability, T/C [34] was 2.72%, the viability, T/C [35] was 2.27% and the viability, T/C [36] was 0.3%.

Molecule `Cn1ncnc1[C@H]1c2n[nH]c(=O)c3cc(F)cc(c23)N[C@@H]1c1ccc(F)cc1` + COc1c(OCCCN2CCOCC2)ccc2c3n(c(=NC(=O)c4cnc(N)nc4)nc12)CCN3 has an IC50 (second compound 0.00316 µM) greater than 100 nM, an IC50 (second compound 0.01 µM) greater than 100 nM and an IC50 (second compound 0.0316 µM) greater than 100 nM. For the same molecule, the IC50 (second compound 0.1 µM) was 32.2 nM, the IC50 (second compound 0.316 µM) was less than 0.316 nM and the IC50 (second compound 1 µM) was less than 0.316 nM. The viability, T/C (second compound 0.00316 µM, first compound 0.000316 µM) was 100%, the viability, T/C (second compound 0.00316 µM, first compound 0.001 µM) was 92.2% and the viability, T/C (second compound 0.00316 µM, first compound 0.00316 µM) was 106%. The viability, T/C (second compound 0.00316 µM, first compound 0.01 µM) was 88.5%, the viability, T/C [1] was 83.4% and the viability, T/C [2] was 59.3%. For the same molecule, the viability, T/C (second compound 0.01 µM, first compound 0.000316 µM) was 92.3%, the viability, T/C (second compound 0.01 µM, first compound 0.001 µM) was 92.1% and the viability, T/C (second compound 0.01 µM, first compound 0.00316 µM) was 88.7%. For the same molecule, the viability, T/C (second compound 0.01 µM, first compound 0.01 µM) was 93.6%, the viability, T/C [7] was 86.5% and the viability, T/C [8] was 60.6%. It also gave a viability, T/C (second compound 0.0316 µM, first compound 0.000316 µM) of 88.5%, a viability, T/C (second compound 0.0316 µM, first compound 0.001 µM) of 93.3% and a viability, T/C (second compound 0.0316 µM, first compound 0.00316 µM) of 85.4%. For the same molecule, the viability, T/C (second compound 0.0316 µM, first compound 0.01 µM) was 73.5%, the viability, T/C [13] was 65.6% and the viability, T/C [14] was 55.3%. It also gave a viability, T/C (second compound 0.1 µM, first compound 0.000316 µM) of 66.7%, a viability, T/C (second compound 0.1 µM, first compound 0.001 µM) of 60.7% and a viability, T/C (second compound 0.1 µM, first compound 0.00316 µM) of 57.5%. It also gave a viability, T/C (second compound 0.1 µM, first compound 0.01 µM) of 57.2%, a viability, T/C [19] of 51.8% and a viability, T/C [20] of 41%. For the same molecule, the viability, T/C (second compound 0.316 µM, first compound 0.000316 µM) was 20.3%, the viability, T/C (second compound 0.316 µM, first compound 0.001 µM) was 19.2% and the viability, T/C (second compound 0.316 µM, first compound 0.00316 µM) was 18.7%. For the same molecule, the viability, T/C (second compound 0.316 µM, first compound 0.01 µM) was 16.4%, the viability, T/C [25] was 20% and the viability, T/C [26] was 15.4%. For the same molecule, the viability, T/C (second compound 1 µM, first compound 0.000316 µM) was 4.4%, the viability, T/C (second compound 1 µM, first compound 0.001 µM) was 3.64% and the viability, T/C (second compound 1 µM, first compound 0.00316 µM) was 3.49%. It also gave a viability, T/C (second compound 1 µM, first compound 0.01 µM) of 3.59%, a viability, T/C [31] of 3.84% and a viability, T/C [32] of 2.43%.
